This note sets out measurements from ChEMBL document CHEMBL1208682, “New quinoline derivatives: synthesis and investigation of antibacterial and antituberculosis properties” (2010).

Structures are written as SMILES. In brackets after ≈: the same amount, converted by molar mass.

This assay has as its system Mycobacterium tuberculosis. As to the kind of experiment: Antituberculosis activity against multi drug-resistant Mycobacterium tuberculosis after 7 days using resazurin dye by broth microdilution assay. The class given is functional. As to conditions: 168 h.

Broadly, the MIC is the least concentration at which growth counts as inhibited. Read a low MIC as inhibition by little substance.

For `Cc1cc(C)cc(NC(=O)NNc2cc(C(F)(F)F)nc3c(C(F)(F)F)cccc23)c1`, the MIC worked out at 6.25 µM (≈ 2.76 µg/mL).

Turning to `FC(F)(F)c1cc(N/N=C/c2ccc3nonc3c2)c2cccc(C(F)(F)F)c2n1`, 12.5 µM (≈ 5.32 µg/mL) was the least that counted as inhibitory (MIC).

The compound `CC(=O)OCc1ccc(/C=N/Nc2cc(C(F)(F)F)nc3c(C(F)(F)F)cccc23)o1` yielded a minimal inhibitory concentration (MIC) of more than 50 µM.

`Cn1nnc2cc(/C=N/Nc3cc(C(F)(F)F)nc4c(C(F)(F)F)cccc34)ccc21` showed an MIC of 25 µM (≈ 11 µg/mL). This counts as double-digit micromolar.

As for `FC(F)C(F)(F)Oc1cccc(/C=N/Nc2cc(C(F)(F)F)nc3c(C(F)(F)F)cccc23)c1`, the MIC amounted to 25 µM (≈ 12.5 µg/mL).

As to `FC(F)(F)c1cc(N/N=C/c2cccnc2)c2cccc(C(F)(F)F)c2n1`, the MIC is more than 50 µM.

Turning to `Cc1nc[nH]c1/C=N/Nc1cc(C(F)(F)F)nc2c(C(F)(F)F)cccc12`, the minimal inhibitory concentration (MIC) came out at 6.25 µM (≈ 2.42 µg/mL).

Consider `Oc1cc(F)ccc1/C=N/Nc1cc(C(F)(F)F)nc2c(C(F)(F)F)cccc12`, for which the MIC was more than 50 µM.

Compound `FC(F)(F)c1cc(N/N=C/c2cocc2Br)c2cccc(C(F)(F)F)c2n1` returned an MIC of more than 50 µM.

`CCCCCCC/C=N/Nc1cc(C(F)(F)F)nc2c(C(F)(F)F)cccc12` showed an MIC of 6.25 µM (≈ 2.53 µg/mL).

As for `COc1ccccc1NC(=O)NNc1cc(C(F)(F)F)nc2c(C(F)(F)F)cccc12`, the MIC was 12.5 µM (≈ 5.55 µg/mL).

`FC(F)(F)Oc1cccc(/C=N/Nc2cc(C(F)(F)F)nc3c(C(F)(F)F)cccc23)c1` came in with an MIC of 12.5 µM (≈ 5.84 µg/mL).

The compound `COc1ccc(/C=N/Nc2cc(C(F)(F)F)nc3c(C(F)(F)F)cccc23)c(F)c1` displayed an MIC of 6.25 µM (≈ 2.7 µg/mL).

For `FC(F)(F)c1cc(N/N=C/c2ccc3c(c2)CCO3)c2cccc(C(F)(F)F)c2n1`, 12.5 µM (≈ 5.32 µg/mL) was the least that counted as inhibitory (MIC).

With `FC(F)(F)c1cc(N/N=C/c2cccs2)c2cccc(C(F)(F)F)c2n1`, the minimum inhibitory concentration (MIC) is more than 50 µM.

`O=C(NNc1cc(C(F)(F)F)nc2c(C(F)(F)F)cccc12)Nc1ccc(F)cc1` registered an MIC of 12.5 µM (≈ 5.4 µg/mL).

As for `CCCCCNC(=O)NNc1cc(C(F)(F)F)nc2c(C(F)(F)F)cccc12`, the minimum inhibitory concentration (MIC) is more than 50 µM.

Regarding `COc1ccc2[nH]cc(/C=N/Nc3cc(C(F)(F)F)nc4c(C(F)(F)F)cccc34)c2c1`, the MIC is more than 50 µM.

Regarding `Cn1cccc1/C=N/Nc1cc(C(F)(F)F)nc2c(C(F)(F)F)cccc12`, the MIC was found to be 25 µM (≈ 9.66 µg/mL).

`N#Cc1cccc(NC(=O)NNc2cc(C(F)(F)F)nc3c(C(F)(F)F)cccc23)c1`: the MIC is more than 50 µM.

`FC(F)(F)c1cc(N/N=C/C2CCCCC2)c2cccc(C(F)(F)F)c2n1` displayed an MIC of 6.25 µM (≈ 2.43 µg/mL).

The compound `COc1ccc(/C=N/Nc2cc(C(F)(F)F)nc3c(C(F)(F)F)cccc23)cc1O` had an MIC of 12.5 µM (≈ 5.37 µg/mL). This MIC is about 2-fold higher than that of the compound before.

Compound `COCCNC(=S)NNc1cc(C(F)(F)F)nc2c(C(F)(F)F)cccc12` displayed an MIC of 25 µM (≈ 10.3 µg/mL).

The compound `Cc1cccc2c(/C=N/Nc3cc(C(F)(F)F)nc4c(C(F)(F)F)cccc34)c[nH]c12` yielded an MIC of 12.5 µM (≈ 5.45 µg/mL). This MIC is about 2-fold lower than that of the compound before.

Turning to `CO[C@H]1/C=C/O[C@@]2(C)Oc3c(C)c(O)c4c(O)c(c(/C=N/N5CCN(C)CC5)c(O)c4c3C2=O)NC(=O)/C(C)=C\C=C\[C@H](C)[C@H](O)[C@@H](C)[C@@H](O)[C@@H](C)[C@H](OC(C)=O)[C@@H]1C` [RIFAMPIN], the MIC stood at 25 µM (≈ 20.6 µg/mL).

Compound `Fc1ccccc1NC(=S)NNc1cc(C(F)(F)F)nc2c(C(F)(F)F)cccc12` displayed an MIC of more than 50 µM.

Turning to `NNC(=O)c1ccncc1` [ISONIAZID], the MIC was 12.5 µM (≈ 1.71 µg/mL).

Consider `FC(F)(F)c1cc(N/N=C/c2c[nH]cn2)c2cccc(C(F)(F)F)c2n1`, for which the minimal inhibitory concentration (MIC) stood at 6.25 µM (≈ 2.33 µg/mL).

Compound `Cn1cc(Cl)c(/C=N/Nc2cc(C(F)(F)F)nc3c(C(F)(F)F)cccc23)n1` came in with an MIC of 6.25 µM (≈ 2.64 µg/mL).
